Where a name gives a salt, the structure may show the parent alone.

One assay concerns Acinetobacter baumannii ATCC 17978. Briefly: Antimicrobial susceptibility testing: 90% growth inhibitory concentration (IC90) determination. The assay is classed as cell-based. To be noted: 90% growth inhibitory concentration; Acinetobacter baumannii ATCC17978; Iso-Sensitest broth, OD 600 nm over 16h; read-out: ATCC17978 IC90. In short, it runs like this: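 Compounds serially twofold diluted (e.g. 50 to 0.097 μM final) in Iso-Sensitest broth, inoculated at ~5×10^(5) CFU/ml, incubated at 35±2° C. OD600 read every 20 minutes over 16h. IC90 taken as concentration inhibiting 90% of growth during logarithmic phase.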
`CCc1cc(Nc2nccn3c(-c4ccc(Oc5ccc(C(=O)NCCCN)cn5)c(F)c4F)cnc23)ccc1C(=O)NC` [Example 507, N-(3-aminopropyl)-6-[4-[8-[3-ethyl-4-(methylcarbamoyl)anilino]imidazo[1,2-a]pyrazin-3-yl]-2,3-difluoro-phenoxy]pyridine-3-carboxamide; formic acid]: the IC90 stood at 500 nM.

On to `CCc1cc(Nc2nccn3c(-c4ccc(Oc5ccc(OCCCN)cn5)c(F)c4F)cnc23)ccc1C(=O)NC` [Example 511, 4-[[3-[4-[[5-(3-aminopropoxy)-2-pyridyl]oxy]-2,3-difluoro-phenyl]imidazo[1,2-a]pyrazin-8-yl]amino]-2-ethyl-N-methyl-benzamide; formic acid], for which the IC90 came to 480 nM.

As to `CCc1cc(Nc2nccn3c(-c4ccc(OC)c(F)c4F)cnc23)ccc1C(=O)NCCCCN` [Example 514, N-(4-aminobutyl)-4-((3-(2,3-difluoro-4-methoxyphenyl)imidazo[1,2-a]pyrazin-8-yl)amino)-2-ethylbenzamide hydrochloride], the IC90 is 48 nM.

`COc1ccc(-c2cnc3c(Nc4ccc(C(=O)NCCCCN)c(Cl)c4)nccn23)c(F)c1F` [Example 515, N-(4-aminobutyl)-2-chloro-4-((3-(2,3-difluoro-4-methoxyphenyl)imidazo[1,2-a]pyrazin-8-yl)amino)benzamide hydrochloride]: the IC90 turned out to be 42 nM.

For the compound `COc1ccc(-c2cnc3c(Nc4ccc(C(=O)NCCCCCCCN)c(C)c4)nccn23)c(F)c1F` [Example 516, N-(7-aminoheptyl)-4-((3-(2,3-difluoro-4-methoxyphenyl)imidazo[1,2-a]pyrazin-8-yl)amino)-2-methylbenzamide hydrochloride], the IC90 was 34 nM.

Take `CCc1cc(Nc2nccn3c(-c4ccc(OC)c(F)c4F)cnc23)ccc1C(=O)NCCCCCCCN` [Example 517, N-(7-aminoheptyl)-4-((3-(2,3-difluoro-4-methoxyphenyl)imidazo[1,2-a]pyrazin-8-yl)amino)-2-ethylbenzamide hydrochloride]: the IC90 was determined as 67 nM.

Staying with this assay, now noted: Acinetobacter baumannii, ATCC17978, 16 h, 90% growth inhibitory concentration; Acinetobacter baumannii ATCC17978; Iso-Sensitest broth, OD 600 nm over 16h; read-out: ATCC17978 IC90.
For the compound `COc1ccc(-c2cnc3c(Nc4ccc(C(=O)NCCCCCCN)c(Cl)c4)nccn23)c(F)c1F` [Example 495, N-(6-aminohexyl)-2-chloro-4-((3-(2,3-difluoro-4-methoxyphenyl)imidazo[1,2-a]pyrazin-8-yl)amino)benzamide hydrochloride], the IC90 stood at 34 nM.

Turning to `N#CCOc1ccc(-c2cnc3c(Nc4ccc(C(=O)NCCCCCN)c(Cl)c4)nccn23)c(F)c1F` [Example 496, N-(5-aminopentyl)-2-chloro-4-[[3-[4-(cyanomethoxy)-2,3-difluorophenyl]imidazo[1,2-a]pyrazin-8-yl]amino]benzamide], the IC90 is 23 nM.

In the case of `N#CCOc1ccc(-c2cnc3c(Nc4ccc(C(=O)NCCCCCCN)c(Cl)c4)nccn23)c(F)c1F` [Example 497, N-(6-aminohexyl)-2-chloro-4-((3-(4-(cyanomethoxy)-2,3-difluorophenyl)imidazo[1,2-a]pyrazin-8-yl)amino)benzamide], the IC90 came to 25 nM.

In the case of `COc1ccc(-c2cnc3c(Nc4ccc(C(=O)N[C@H](C)CNC(=N)C(C)C)c(C)c4)nccn23)c(F)c1F` [Example 498, 4-[[3-(2,3-difluoro-4-methoxyphenyl)imidazo[1,2-a]pyrazin-8-yl]amino]-2-methyl-#N!-[(2#R!)-1-(2-methylpropanimidoylamino)propan-2-yl]benzamide], the IC90 worked out at 140 nM.

As to `COc1ccc(-c2cnc3c(Nc4ccc(C(=O)N[C@@H](C)CNC(=N)C(C)C)c(C)c4)nccn23)c(F)c1F` [Example 499, 4-[[3-(2,3-difluoro-4-methoxyphenyl)imidazo[1,2-a]pyrazin-8-yl]amino]-2-methyl-#N!-[(2#S!)-1-(2-methylpropanimidoylamino)propan-2-yl]benzamide], the IC90 worked out at 300 nM.

On to `COc1ccc(-c2cnc3c(Nc4ccc(C(=O)N[C@@H](C)CNC(=N)C(C)C)c(Cl)c4)nccn23)c(F)c1F` [Example 500, 2-chloro-4-[[3-(2,3-difluoro-4-methoxyphenyl)imidazo[1,2-a]pyrazin-8-yl]amino]-#N!- [(2#S!)-1-(2-methylpropanimidoylamino)propan-2-yl]benzamide], for which the IC90 was 310 nM.

With `COc1ccc(-c2cnc3c(Nc4ccc(C(=O)N[C@H](C)CNC(C)=N)c(Cl)c4)nccn23)c(F)c1F` [Example 501, 2-chloro-4-[[3-(2,3-difluoro-4-methoxyphenyl)imidazo[1,2-a]pyrazin-8-yl]amino]-#N!- [(2#R!)-1-(ethanimidoylamino)propan-2-yl]benzamide], the IC90 was determined as 69 nM.

On to `CCc1cc(Nc2nccn3c(-c4ccc(OC)c(F)c4F)cnc23)ccc1C(=O)N[C@H](C)CNC(=N)C(C)C` [Example 502, 4-[[3-(2,3-difluoro-4-methoxyphenyl)imidazo[1,2-a]pyrazin-8-yl]amino]-2-ethyl-#N!-[(2#R!)-1-(2-methylpropanimidoylamino)propan-2-yl]benzamide], for which the IC90 came to 150 nM.

`CCc1cc(Nc2nccn3c(-c4ccc(OC)c(F)c4F)cnc23)ccc1C(=O)N[C@@H](C)CNC(=N)C(C)C` [Example 503, 4-[[3-(2,3-difluoro-4-methoxyphenyl)imidazo[1,2-a]pyrazin-8-yl]amino]-2-ethyl-#N!-[(2#S!)-1-(2-methylpropanimidoylamino)propan-2-yl]benzamide]: the IC90 was 450 nM.

As to `COc1ccc(-c2cnc3c(Nc4ccc(C(=O)N[C@H](C)CN)c(Cl)c4)nccn23)c(F)c1F` [Example 504, #N!-[(2#R!)-1-aminopropan-2-yl]-2-chloro-4-[[3-(2,3-difluoro-4-methoxyphenyl)imidazo[1,2-a]pyrazin-8-yl]amino]benzamide;dihydro-chloride], the IC90 amounted to 100 nM.

In the case of `COc1ccc(-c2cnc3c(Nc4ccc(C(=O)N[C@@H](C)CN)c(Cl)c4)nccn23)c(F)c1F` [Example 505, #N!-[(2#S!)-1-aminopropan-2-yl]-2-chloro-4-[[3-(2,3-difluoro-4-methoxyphenyl)imidazo[1,2-a]pyrazin-8-yl]amino]benzamide;dihydro-chloride], the IC90 came out at 270 nM.

For the compound `COc1ccc(-c2cnc3c(Nc4ccc(C(=O)N[C@H](C)CN)c(C)c4)nccn23)c(F)c1F` [Example 506, #N!-[(2#R!)-1-aminopropan-2-yl]-4-[[3-(2,3-difluoro-4-methoxyphenyl)imidazo[1,2-a]pyrazin-8-yl]amino]-2-methylbenzamide;dihydrochlo-ride], the IC90 was 130 nM.

As for `COc1ccc(-c2cnc3c(Nc4ccc(C(=O)N[C@@H](C)CN)c(C)c4)nccn23)c(F)c1F` [Example 508, #N!-[(2#S!)-1-aminopropan-2-yl]-4-[[3-(2,3-difluoro-4-methoxyphenyl)imidazo[1,2-a]pyrazin-8-yl]amino]-2-methylbenzamide;dihydrochlo-ride], the IC90 turned out to be 320 nM.

`COc1ccc(-c2cnc3c(Nc4ccc(C(=O)N[C@H](C)CNC(=N)C(C)C)c(Cl)c4)nccn23)c(F)c1F` [Example 509, (R)-2-chloro-4-((3-(2,3-difluoro-4-methoxyphenyl)imidazo[1,2-a]pyrazin-8-yl)amino)-N-(1-isobutyrimidamidopropan-2-yl)benzamide]: the IC90 amounted to 110 nM.

With `CCc1cc(Nc2nccn3c(-c4ccc(Oc5ccc(OCCCN)cn5)c(F)c4F)cnc23)ccc1C(=O)N(C)C` [Example 510, 4-[[3-[4-[[5-(3-aminopropoxy)-2-pyridyl]oxy]-2,3-difluoro-phenyl]imidazo[1,2-a]pyrazin-8-yl]amino]-2-ethyl-N,N-dimethyl-benzamide; formic acid], the IC90 is 860 nM.

As to `CCc1cc(Nc2nccn3c(-c4ccc(Oc5ccc(OCCN)cn5)c(F)c4F)cnc23)ccc1C(=O)NC` [Example 512, 4-[[3-[4-[[5-(2-aminoethoxy)-2-pyridyl]oxy]-2,3-difluoro-phenyl]imidazo[1,2-a]pyrazin-8-yl]amino]-2-ethyl-N-methyl-benzamide; formic acid], the IC90 was 510 nM.

With `COc1ccc(-c2cnc3c(Nc4ccc(C(=O)NCCCCN)c(C)c4)nccn23)c(F)c1F` [Example 513, N-(4-aminobutyl)-4-((3-(2,3-difluoro-4-methoxyphenyl)imidazo[1,2-a]pyrazin-8-yl)amino)-2-methylbenzamide hydrochloride], the IC90 was determined as 50 nM.

On to `COc1ccc(-c2cnc3c(Nc4ccc(C(=O)NCCCCCCCN)c(Cl)c4)nccn23)c(F)c1F` [Example 518, N-(7-aminoheptyl)-2-chloro-4-((3-(2,3-difluoro-4-methoxyphenyl)imidazo[1,2-a]pyrazin-8-yl)amino)benzamide hydrochloride], for which the IC90 worked out at 171 nM.

For the compound `N#CCOc1ccc(-c2cnc3c(Nc4ccc(C(=O)NCCCCN)c(Cl)c4)nccn23)c(F)c1F` [Example 519, N-(4-aminobutyl)-2-chloro-4-((3-(4-(cyanomethoxy)-2,3-difluorophenyl)imidazo[1,2-a]pyrazin-8-yl)amino)benzamide], the 90% effect concentration (IC90) worked out at 47 nM.

`CCc1cc(Nc2nccn3c(-c4ccc(OC)c(F)c4F)cnc23)ccc1C(=O)NCCCO[C@@H]1O[C@H](CO)[C@H](O)[C@H](O)[C@H]1N` [Example 520, N-[3-[(2R,3R,4R,5R,6R)-3-amino-4,5-dihydroxy-6-(hydroxymethyl)oxan-2-yl]oxypropyl]-4-[[3-(2,3-difluoro-4-methoxyphenyl)imidazo[1,2-a]pyrazin-8-yl]amino]-2-ethylbenzamide;formic acid]: the 90% effect concentration (IC90) amounted to 110 nM.

As to `N#CCOc1ccc(-c2cnc3c(Nc4ccc(C(=O)NCCCCCCCN)c(Cl)c4)nccn23)c(F)c1F` [Example 521, N-(7-aminoheptyl)-2-chloro-4-((3-(4-(cyanomethoxy)-2,3-difluorophenyl)imidazo[1,2-a]pyrazin-8-yl)amino)benzamide], the IC90 was determined as 24 nM.

Values taken from US20230012368A1 (Hoffmann-La Roche Inc., priority 2018, published 2023).
